Source: patent US6368788B1 (priority 1987, dated 2002)

Columns and labels:
[1] = tested on: peripheral blood lymphocytes; assay: Protocol A3 Group 1A: chronic pyoderma; format: in vivo, human
Source text: Group 1A (a subgroup of Group 1) consisted of 32 patients (17 males and 15 females ranging from 17 to 42 years of age) with chronic pyococcal skin diseases including furunculosis, disseminated impetigo, multiple ecthymas, recurring osteofolliculitis, seborrhea adiposa, and concrete seborrhea complicated by vulgar or abscessing acne. Diseases were characterized by a chronic course or frequent relapses, and at the time of presentation for entry into the trial, all patients had received several prior courses of antibiotic therapy, none of which led to any detectable clinical improvement. Patients in Group 1A were randomly divided into two treatment groups, the first consisting of 16 patients treated with L-Glu-L-Trp according to Therapy A, below, and the second consisting of 16 patients treated (as a control) according to conventional therapeutic methods- i.e., Therapy B (below).
In treatment Protocol A, all patients received L-Glu-L-Trp in combination with antibiotics.
Therapy B (conventional therapy control): All patients in this protocol received the same antibiotics as in Therapy A and a nonspecific stimulatory agent, i.e., Thymogenin instead of L-Glu-L-Trp.
Local antibiotics were administered as follows: Ampicillin (4), oxacillin (4), Levomycetin (1), tetracycline (9), Rondomycin (2), deoxycycline (8), cephalexin (2), and Rifampicin (1).

[2] = tested on: E-receptors on aged thymocytes; assay: Expression of E-receptors on aged thymocytes; format: cell-based, guinea pigs; details: for E-RFC (%): aged thymocytes
Source text: Effects of L-Glu-L-Trp on expression of E-receptors on “aged” thymocytes was investigated in a manner similar to that in EXAMPLE 26, above, but using thymocytes obtained from old male guinea pigs (700-800 g). In aged animals it is recognized that the percentage of thymocytes forming rosettes with rabbit erythrocytes is reduced, and cell surface E-receptors are likewise reduced. For these studies aged thymocytes were isolated in Medium 199 from 42 guinea pigs, and E-RFC determined as described by Stadecker, M. J., et al., J. Immunol. 111(8):4061-4065 (1973), incorporated herein by reference. L-Glu-L-Trp was dissolved in 0.9% (w/v) NaCl and added to cultures of thymocytes at concentrations of 1, 0.01, and 0.0001 mg/ml.

[3] = Group 1A chronic pyoderma, after L-Glu-L-Trp Therapy (n = 16)
[4] = psoriasis Group 1, after L-Glu-L-Trp Therapy (n = 30)
[5] = psoriasis, after Combination L-Glu-L-Trp Therapy (n = 30)
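For Patients with improvement in this document: psoriasis patients, 30 per group, with disease activity tracked through laboratory and clinical measures, set against a group receiving traditional therapy alone.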
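For Patients with significant improvement in this document: psoriasis patients, 30 per group, with disease activity tracked through laboratory and clinical measures, set against a group receiving traditional therapy alone.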
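For Patients with total recovery in this document: psoriasis patients, 30 per group, with disease activity tracked through laboratory and clinical measures, set against a group receiving traditional therapy alone.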
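For Shorter length of hospital stay vs Group 2 in this document: psoriasis patients, 30 per group, with disease activity tracked through laboratory and clinical measures, set against a group receiving traditional therapy alone.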

**Q.** Which results are given for L-Glu-L-Trp?
**A.** B-Lymphocytes [1, 3]: 0.15 ± 0 ×10^9/L; B-Lymphocytes % Normal Value [1, 3]: (31%); B-Lymphocytes (%) [1, 3]: 7 ± 3%; Basophils (%) [1, 3]: 0.01 ± 0%; Eosinophils (%) [1, 3]: 4.2 ± 1%; Erythrocyte (sed. rate mm) [1, 3]: 13.1 ± 1 mm; Erythrocytes [1, 3]: 4.2 ± 0.1 10^12/L; IgA [1, 3]: 2.7 ± 1 g/L; IgA % Normal Value [1, 3]: (143%); IgG [1, 3]: 16.2 ± 1 g/L; IgG % Normal Value [1, 3]: (150%); IgM [1, 3]: 1 ± 0 g/L; IgM % Normal Value [1, 3]: (65%); Leukocytes [1, 3]: 8.7 ± 0.5 ×10^9/L; Leukocytes % Normal Value [1, 3]: (130%); Lymphocytes [1, 3]: 2.0 ± 0.2 ×10^9/L; Lymphocytes % Normal Value [1, 3]: (71%); Lymphocytes, % [1, 3]: 25.9 ± 2.2%; Monocytes, % [1, 3]: 4.5 ± 1%; Neutrophils, % [1, 3]: 63.8 ± 4%; T-Lymphocytes [1, 3]: 1.15 ± 0 ×10^9/L; T-Lymphocytes % Normal Value [1, 3]: (68%); T-Lymphocytes (%) [1, 3]: 52.3 ± 5%; T-helper [1, 3]: 0.92 ± 0.09 ×10^9/L; T-helper % Normal Value [1, 3]: (70%); T-helper (%) [1, 3]: 45.4 ± 4.9%; T-suppressor [1, 3]: 0.51 ± 0 ×10^9/L; T-suppressor % Normal Value [1, 3]: (131%); T-suppressor (%) [1, 3]: 28.2 ± 4%; Blast Transform., Con-A ([1]; Group 1A, L-Glu-L-Trp Therapy): 62.8 ± 8 % of PBL; Blast Transform., PHA ([1]; Group 1A, L-Glu-L-Trp Therapy): 42.7 ± 7 % of PBL; Blast Transform., Staph-A ([1]; Group 1A, L-Glu-L-Trp Therapy): 85.6 ± 9 % of PBL; Patients with improvement (10 days): 7%; Patients with significant improvement (10 days): 60%; Patients with total recovery (10 days): 33%; Shorter length of hospital stay vs Group 2 (average): 4.2 days; Decrease in erythema of skin eruptions sooner than controls (in vivo): 2.8 days; Disappearance of psoriatic rash sooner than controls (in vivo): 7.1 days; Earlier recovery of disease activity than conventional therapy (in vivo): 2 to 3 days; C3 complement [4]: 926 ± 28.4 µg/mL; Ceruloplasmin [4]: 366 ± 11.4 µg/mL; Clotting time (citrated whole blood-recalcified) [4]: 141 ± 2.4; FDP [4]: 23 ± 1.8 µg/mL; Fibrinogen Concentration [4]: 3.4 ± 0.1 g/L; Fibrinolytic Activity [4]: 200 ± 2.7 min; Kaolin-Cephalin clotting time [4]: 58 ± 0.3; Orosomucoid [4]: 829 ± 13.2 µg/mL; PT [4]: 23 ± 0.2; Prealbumin [4]: 357 ± 3.8 µg/mL; Thrombotest [4]: 33 ± 0.5 units; Transferrin [4]: 3.36 ± 0.08 µg/mL; α2-macroglobulin [4]: 2.5 ± 0.01; Number of Patients Having a Clinical Outcome as: Considerable Improvement (psoriasis Group 1, day 8-10): 18/30; Number of Patients Having a Clinical Outcome as: Improvement (psoriasis Group 1, day 8-10): 2/30; Number of Patients Having a Clinical Outcome as: No Improvement (psoriasis Group 1, day 8-10): 3/30; Number of Patients Having a Clinical Outcome as: Recovery (psoriasis Group 1, day 8-10): 7/30; Patients with Considerable Improvement (%) (psoriasis Group 1, day 8-10): (60%); Patients with Improvement (%) (psoriasis Group 1, day 8-10): (7%); Patients with No Improvement (%) (psoriasis Group 1, day 8-10): (10%); Patients with Recovery (%) (psoriasis Group 1, day 8-10): (23%); B-Lymphocytes [5]: 0.53 ± 0.02 ×10^9/L; B-Lymphocytes % Normal Value [5]: (115%); IgA [5]: 138 ± 6.8; IgA % Normal Value [5]: (140%); IgG [5]: 187 ± 1.9 mg/mL; IgG % Normal Value [5]: (140%); IgM [5]: 193 ± 9.6; IgM % Normal Value [5]: (152%); Leukocytes [5]: 9.0 ± 1.4 ×10^9/L; Leukocytes % Normal Value [5]: (155%); Lymphocytes [5]: 2.5 ± 0.09 ×10^9/L; Lymphocytes % Normal Value [5]: (144%); T-Lymphocytes [5]: 0.94 ± 0.07 ×10^9/L; T-Lymphocytes % Normal Value [5]: (106%); Percentage of E-RFC ([2]; 1 mg/mL): statistically significant increase in the percentage of E-RFC; E-RFC (%) ([2]; Conc. 0.0001 mg/ml): 50.3 ± 4.2%; E-RFC (%) ([2]; Conc. 0.01 mg/ml): 47.8 ± 3.9%; E-RFC (%) ([2]; Conc. 1 mg/ml): 54.6 ± 4.2 %
